Values belong to the substance of their own block, whether it stands above or below them.
What was measured:
T cell = test system: T cell; design: method as in PMID 25277199, PMID 24134186; details: ref [38], [50]; cited from earlier work
recombinant hGal-7 [1] = experiment: Disruption of hGal-7 homodimers, native gel electrophoresis/Western blot; type: biochemical, human; details: for disruption of hGal-7 homodimers by biotinylated peptide: 0.5 μM hGal-7, 20 mM potassium phosphate pH 7.1, 60 min at 4°C, low SDS-PAGE Western blot, representative of two independent experiments
Text: To measure the ability of the peptides to disrupt the formation of hGal-7 dimers, we used mild denaturing native gel electrophoresis, a commonly used approach to visualize monomer-dimer equilibrium (Fig. 1A and Supplementary Fig. S1). […] This specificity at disrupting hGal-7 dimer formation is provided by distinct three-dimensional arrangements between otherwise very similar galectin homologues. Indeed, while all monomeric galectins reveal identical topologies, dimer formation in hGal-7 proceeds through a “back-to-back” topology of the monomers while other galectins, including hGal-1 and hGal-2, adopt a “side-by-side” structural arrangement (Fig. 1B). This structural organization provides additional means to specifically target and disrupt galectin function.
Incubation of the recombinant B. hGal-1 and C. hGal-2 with hGal-7(129–135) was performed in the same potassium phosphate buffer. The effect of hGal-7(129–135) on the monomeric and dimeric forms of hGal-7/hGal-1/hGal-2 was assessed by Western blotting in native conditions with respective antibodies. The hGal-1/hGal-2 films were overexposed. PACAP28–38 was the control peptide used in order to ensure the specificity of hGal-7(129–135). Recombinant hGal-7 (0.5 μM) was also incubated with increasing concentrations of hGal-7(129–135) in 0.1 mM D. lactose or E. LacNac solutions. Results are representative of three independent experiments.
Human Gal-7 cDNA was cloned into pET-22b(+) using NdeI and HindIII restriction enzymes. Human pET-Gal-1 vector was generously donated by Dr. S. Sato (McGill University, QC, Canada). The proteins were produced in E. coli BL21 (DE3) cells at 37°C. Isopropyl β-D-1-thiogalactopyranoside (IPTG) (1 mM) was added to the bacterial culture at OD600nm = 0.6–0.7 and then incubated for 4 h at 37°C to allow protein production. Bacterial pellets were resuspended in lysis buffer (0.7 mg/mL lysozyme, 10 mM Tris pH 8, 100 mM NaCl, 1 mM EDTA, 1 mM DTT and a protease inhibitor cocktail) and then incubated for 1 h at 37°C prior to centrifugation for 30 min at 15,000 × g (4°C). The supernatant was then filtered with 500 mL bottle top filter ([…]) (Corning, New York, NY, USA) and then ran through a lactose-agarose column (Sigma, St. Louis, MO, USA). The protein was eluted in 1 mL fractions with 150 mM lactose solution. Purified fractions were analyzed by SDS-PAGE. The hGal-7 was then concentrated and purified using Centrifugal filter units (Amicon Ultra-15, 10K) (EMD, Millipore, Etobicoke, ON) in 20 mM potassium phosphate at pH 7.1. All subsequent experiments with the recombinant proteins were performed in the same buffer solution unless mentioned otherwise. Brilliant Coomassie blue was purchased from BioRad (Bio-Rad Laboratories, Mississauga, ON, Canada). The recombinant protein hGal-2 was purchased from MyBiosource (San Diego, CA, USA). […]
gaI-7 (0.5 μM) was incubated with increasing concentrations of biotin-labeled hGaI-7129–135 in 20 mM potassium phosphate buffer (pH 7.1) for 60 min at 4°C beforeWestern blot analysis in low SDS-PAGE using an anti-gaI-7 antibody. B. Similar experiments were carried out using recombinant human B. gaI-1 and C. gaI-2. Results are representative of two independent experiments.
(also on this page, place not known: www.impactjournals.com/oncotarget/ Oncotarget, Materials 2015 Supplementary hGaI-7 129–135.)

recombinant hGal-7 [2] = experiment: Solid phase fluorescent binding assay on hGal-7; design: species or system human; details: hGal-7 10 μg/ml coated, unlabeled peptide (1 mM) 60 min, then biotin-labeled peptide 120 min, room temperature, Streptavidin R-phycoerythrin fluorescence, three independent experiments
Text: Results are representative of three independent experiments. Error bars represent standard deviation.

recombinant hGal-1 = details: hGal-1 10 μg/ml coated; unlabeled peptide (1 mM) 60 min, then biotin-labeled peptide 120 min, room temperature; Streptavidin R-phycoerythrin fluorescence; three independent experiments
hGal-2 = experiment: Binding to hGal-2; design: species or system human; details: biotinylated peptide; Supplementary Fig. S2 quoted

Substance: Gal-7: human galectin-7
effects on T cell functions and survival (T cell): strong cytotoxic and inhibitory effects on T cell functions and survival

Substance: H-IRPGTVLRIRGLV-NH2 [hGal-7(13–25), peptide corresponding to hGal-7 segment between residues 13–25]
disruption of hGal-7 homodimers (in words) (recombinant hGal-7 [1]; 0.5 μM recombinant hGal-7, 20 mM potassium phosphate pH 7.1, 1 h at 4°C, native PAGE, Western blot): less potent than hGal-7(129–135) to disrupt hGal-7 homodimers

binding to immobilized hGal-7 (recombinant hGal-7 [2]): could bind hGal-7
binding to immobilized hGal-7 (recombinant hGal-7 [2]; listed as biotin-labeled hGal-7(129–135)): dose-dependent interaction
binding to immobilized hGal-1 (recombinant hGal-1): not hGal-1 or hGal-2
binding to hGal-2 (hGal-2): not hGal-1 or hGal-2
Substance: biotinylated hGal-7(129–135): biotinylated version of hGal-7(129–135), Biotin-NHS coupled via Ahx linker
disruption of hGal-7 homodimers by biotinylated peptide (recombinant hGal-7 [1]): still capable of specifically inhibiting the formation of hGal-7 homodimers
disruption of hGal-7 homodimers by biotinylated peptide (recombinant hGal-7 [1]; listed as biotin-labeled hGaI-7129–135): Disruption of hGaI-7 dimer

— publication PMC4747383, “Design of a peptidic inhibitor that targets the dimer interface of a prototypic galectin” (Oncotarget, 2015)
